In PubChem BioAssay (NCI):
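Step 1: Grow cells in 96-well plates. Step 2: Expose to compound for 48 hours at 5 concentrations. Step 3: Interpolate endpoints linearly; if unreached, use highest concentration. Here, GI50 denotes the concentration required for 50% inhibition of growth. The concentration for full growth arrest is given as TGI.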 Active and inactive are the calls of the source. Rule as the data show it: active = GI50 below about 0.43 µM; inactive = the rest.

What was measured:
Experiment in all cases: DTP human tumour cell line panel, 48 h
COLO 205 colon = tested on: COLO 205 colon
HCT-15 colon = tested on: HCT-15 colon
MALME-3M melanoma = tested on: MALME-3M melanoma
SF-295 CNS = tested on: SF-295 CNS
U251 CNS = tested on: U251 CNS
UO-31 renal = tested on: UO-31 renal
UACC-257 melanoma = tested on: UACC-257 melanoma
CCRF-CEM leukemia = tested on: CCRF-CEM leukemia
OVCAR-4 ovarian = tested on: OVCAR-4 ovarian

SMILES	TGI (COLO 205 colon) [µM]	TGI (HCT-15 colon) [µM]	TGI (MALME-3M melanoma) [µM]	TGI (SF-295 CNS) [µM]	TGI (U251 CNS) [µM]	TGI (UO-31 renal) [µM]	TGI (UACC-257 melanoma) [µM]	TGI (CCRF-CEM leukemia) [µM]	TGI (OVCAR-4 ovarian) [µM]	GI50 (COLO 205 colon) [µM]	GI50 (HCT-15 colon) [µM]	GI50 (MALME-3M melanoma) [µM]	GI50 (SF-295 CNS) [µM]	GI50 (U251 CNS) [µM]	GI50 (UO-31 renal) [µM]	GI50 (UACC-257 melanoma) [µM]	GI50 (CCRF-CEM leukemia) [µM]	GI50 (OVCAR-4 ovarian) [µM]	outcome (SF-295 CNS)	outcome (OVCAR-4 ovarian)
CCCC1N2CCCCC2[C@@H]2c3[nH]c4ccccc4c3CCN12 (stereo not given in full)	> 100	> 100	> 100	> 100	> 100	> 100	> 100	> 100	> 100	–	–	–	–	–	–	–	–	–	–	–
Nc1nccc(-c2c(-c3ccc(F)cc3)ncn2C2CCC(O)CC2)n1 (stereo not given)	> 25	> 25	> 25	> 25	> 25	> 23.2	> 25	> 25	> 25	7.1	7.15	6.72	17.7	9.99	1.79	16.1	13.4	2.92	–	–
O=C(CCc1cc(-c2ccccc2)nc(=S)[nH]1)N(Cc1ccccc1)Cc1ccccc1	> 100	> 100	> 100	> 100	> 100	> 100	> 100	> 100	> 100	–	–	–	–	–	–	–	–	–	–	–
CC(=O)OCC1OC(NC(=S)N/N=C2\CC(c3ccccc3)Oc3ccccc32)C(OC(C)=O)C(OC(C)=O)C1OC(C)=O (stereo not given)	> 100	> 100	> 100	> 100	> 100	> 100	> 100	> 100	> 100	–	–	–	–	–	–	–	–	–	–	–
COCCCNC(=O)C1C(=O)C(=O)N(CCCOC)C1=O (stereo not given)	> 100	> 100	> 100	> 100	> 100	> 100	> 100	> 100	> 100	–	–	–	–	–	–	–	–	–	–	–
Cc1ccc(NC(=O)CC(=O)n2nc(C)c(N=Nc3ccccc3C(=O)O)c2C)cc1	> 100	> 100	> 100	> 100	> 100	> 100	> 100	> 100	> 100	–	–	–	–	–	–	–	–	–	–	–
COc1ccc(C(=O)C#Cc2cnc(OC)nc2OC)cc1	42100	–	–	24.8	2.62	–	5.63	10800	94.4	–	17200	16600	–	58900	19100	40800	2530	–	inactive	inactive
N#CC(C#N)=C1Nc2ccccc2S1	> 100	> 100	34.5	69	> 100	> 100	68.7	> 100	> 100	29.5	48	7.62	24.3	43.6	39.1	21.4	45.5	87	–	–
COc1ccc(-c2onc(N)c2-c2cc(OC)c3c(c2)OCO3)cc1	6.86	> 100	> 100	> 100	> 26.1	> 100	> 100	> 88.6	> 96	2.2	0.958	6.1	2.32	2.79	10.5	3.43	1.81	13.6	–	–
O=C(O)C(=Cc1ccc(-c2ccccc2)cc1)C(=O)O	25.1	> 61	39.7	53.3	25.9	27.6	25	> 100	41.2	–	–	–	–	–	–	–	–	–	–	–
COc1ccc2c(c1)[n+](=O)c(C(=O)C/C(=N/OCCCc1ccccc1)C(=O)NC13CC4CC(CC(C4)C1)C3)c(C)n2[O-]	> 100	> 100	> 100	> 100	> 100	> 100	> 100	> 100	> 100	–	–	–	–	–	–	–	–	–	–	–
COC(=O)Nc1nc2ccc(Oc3ccc(NC(=O)Nc4cc(C(F)(F)F)ccc4F)cc3)cc2s1	> 25	> 25	> 25	> 25	> 25	> 25	> 25	> 25	> 20.2	> 25	24.3	0.343	24.8	13.6	> 25	> 25	> 23.7	7.24	–	–
O=C(O)/C=C(\c1nc2ccc([N+](=O)[O-])cc2[nH]1)c1cc(Cl)ccc1O	11.2	20.3	7.52	20.1	19.2	9.01	7.15	12.7	36.6	2.87	2.9	1.96	3.43	3.21	1.54	2.37	2.51	2.72	–	–
Cn1c2ccccc2c2ccc3c(c21)C(=O)c1ccccc1C3=O	82	50.2	24.5	42	34.9	> 100	67.5	13.1	69.7	–	–	–	–	–	–	–	–	–	–	–
Nc1cccc(S(=O)(=O)NCC(=O)O)c1	> 100	> 100	> 100	> 100	> 100	> 100	> 100	> 100	> 100	–	–	–	–	–	–	–	–	–	–	–
COc1ccc2c(c1)CCCN2c1c2ccccc2nc2ccccc12	0.849	25.6	> 100	> 100	> 100	> 100	> 100	71.6	> 100	0.269	0.314	4.26	0.281	0.379	0.69	8.11	0.353	0.812	–	–
C[C@@H]1OC(=O)N2CCCC(=C3SCCCS3)C12 (stereo not given in full)	> 100	> 100	> 100	> 100	> 100	> 100	> 100	> 100	> 100	–	–	–	–	–	–	–	–	–	–	–
O=C1c2cccc([N+](=O)[O-])c2C(=O)N1c1ncn[nH]1	> 100	> 100	> 100	> 100	> 100	> 100	> 100	> 100	> 100	–	–	–	–	–	–	–	–	–	–	–

SMILES	TGI (COLO 205 colon) [µM]	TGI (HCT-15 colon) [µM]	TGI (MALME-3M melanoma) [µM]	TGI (SF-295 CNS) [µM]	TGI (U251 CNS) [µM]	TGI (UO-31 renal) [µM]	TGI (UACC-257 melanoma) [µM]	TGI (CCRF-CEM leukemia) [µM]	TGI (OVCAR-4 ovarian) [µM]	GI50 (COLO 205 colon) [µM]	GI50 (HCT-15 colon) [µM]	GI50 (MALME-3M melanoma) [µM]	GI50 (SF-295 CNS) [µM]	GI50 (U251 CNS) [µM]	GI50 (UO-31 renal) [µM]	GI50 (UACC-257 melanoma) [µM]	GI50 (CCRF-CEM leukemia) [µM]	GI50 (OVCAR-4 ovarian) [µM]	outcome (SF-295 CNS)	outcome (OVCAR-4 ovarian)
O=[N+]([O-])c1ccc(C=NC2CCCCC2)cc1	> 100	> 100	> 100	> 100	> 100	> 100	> 100	> 100	> 100	–	–	–	–	–	–	–	–	–	–	–
Cc1cc2c(cc1Cl)SC1=NN(C)S(=O)N1S2(=O)=O (stereo not given)	> 100	> 100	> 100	> 100	> 100	> 100	> 100	> 100	> 100	> 100	> 100	> 100	> 100	> 100	65.9	> 100	> 100	> 100	–	–
COC1(OC)CC2OC1C1N=NN(C(=O)OC(C)(C)C)C21 (stereo not given)	> 100	> 100	> 100	> 100	> 100	> 100	> 100	> 100	> 100	–	–	–	–	–	–	–	–	–	–	–
CC(SC(=S)N1CCOCC1)c1cc2oc(=O)n(C)c2cc1Cl (stereo not given)	> 100	> 100	> 100	> 100	> 100	> 100	> 100	> 100	> 100	–	–	–	–	–	–	–	–	–	–	–
COc1cc[nH]c1/C=C1\C(=O)Nc2ccc(F)c(C#CC3(O)CCNCC3)c21	0.372	1.93	1.11	2.8	0.984	2.19	1.6	0.836	1.62	0.0303	0.139	0.405	0.287	0.0736	0.119	0.363	0.0779	0.346	–	–
COc1ccc(N2C(=O)/C(=C/c3ccc(N(CCC#N)CCC#N)cc3C)N=C2c2cc([N+](=O)[O-])ccc2Cl)cc1	25.6	59.5	> 56.2	5.8	43.3	> 63.1	> 56.2	37.7	> 46.4	–	–	–	–	–	–	–	–	–	–	–
O=C(O)C(CS)Nc1c2ccccc2nc2ccccc12 (stereo not given)	> 100	> 100	> 100	> 100	> 100	98	> 100	> 100	47.1	–	–	–	–	–	–	–	–	–	–	–
Cc1ccc(-c2nc3nc(-c4ccccc4)nc(N4CCCNCC4)c3o2)cc1	3.66	3.23	3.38	3.33	2.91	2.96	3.26	4.23	3.09	1.96	1.58	1.85	1.77	1.54	1.55	1.72	1.89	1.59	–	–
C/C(O)=C(\N=O)C(=O)Nc1ccc(Cl)cc1Cl	> 100	> 100	> 100	> 100	> 100	> 100	> 100	> 100	> 100	–	–	–	–	–	–	–	–	–	–	–
CCCC(=O)OCC1OC(n2cnc3c(=S)nc[nH]c32)C(OC(=O)CCC)C1OC(=O)CCC (stereo not given)	18.9	> 100	> 100	> 100	> 100	> 100	> 100	17.4	> 100	4.57	7.22	38.5	3.53	62	7.53	10.7	1.79	0.802	–	–
CC/C=C\C[C@H](F)C/C=C1/C(=O)C=C[C@@H]1C/C=C\CCCC(=O)O	12.2	13.8	23.2	17.2	8.94	12.4	11.4	11.1	> 32.5	5.3	4.45	8.08	7.54	4.01	5.78	5.23	1.05	7.76	–	–
Nc1nc2c(nnn2C2CC(O)C(CO)O2)c(=O)[nH]1 (stereo not given)	6.3	> 100	> 100	> 56.3	> 100	> 100	> 100	> 100	> 100	1.89	3.65	5.53	2.54	9.66	3.96	> 48.9	2.39	11.5	–	–
Nc1nc(N(Cc2ccccc2)c2ccccc2)c2cn[nH]c2n1	> 100	> 100	> 100	62.4	> 100	> 100	> 100	> 100	> 100	2.9	4.24	4.23	2.87	4.35	1.8	9.84	4.32	6.37	–	–
CCOC(=O)/C(=C\c1ccccc1)C(=O)O	> 100	> 100	> 100	> 100	> 100	> 100	> 100	> 100	> 100	–	–	–	–	–	–	–	–	–	–	–
NC(=O)COC(=O)c1c(Cl)nc2sccn12	> 100	> 55.1	> 100	> 100	> 100	> 100	> 100	> 31.6	> 100	–	–	–	–	–	–	–	–	–	–	–
O=C1CCC(N2C(=O)c3ccccc3C2=O)C(=O)N1CO (stereo not given)	> 100	> 100	> 100	> 100	> 100	> 100	> 100	> 100	> 100	> 100	52.2	> 100	> 100	90.8	> 100	78.6	30.5	> 100	–	–
CC[C@@]1(c2ccccc2)C2=C(CC(C)(C)CC2=O)Nc2[nH]ncc21	> 100	> 100	> 100	> 100	> 100	> 100	> 100	> 100	> 100	> 100	89	> 100	> 100	> 100	> 100	> 100	31.8	> 100	–	–
